From patent US20180256673A1, “METHODS FOR TREATING FUNGAL INFECTIONS” (priority 2015, published 2018)
In brackets after ≈: the same amount, converted by molar mass. Like-named read-outs stand apart in the source and are kept apart here. Starred links: 1 amine or outer side, 2 acyl side, 3 side chain; linkers in the order of their positions; H or OH if unused. Positions of bridges follow the written chain, without caps; N, C: chain ends. Non-standard residues stand in square brackets, D forms with d. Residues, ends and D or L forms follow the SMILES beside them. *: point of attachment. hTyr(3S-OH,4S-OH,3'-OSO3H) = N[C@H](C(=O)O)[C@H](O)[C@@H](O)c1ccc(O)c(OS(=O)(=O)O)c1; Orn(4R-OH,5R-OH) = O=C([C@H](C[C@@H](O)[C@@H](O)N[*:3])N[*:1])[*:2]; Pro(3S-OH,4S-Me) = C[C@H]1CN[C@H](C(=O)O)[C@H]1O; X1 = CCCCCOc1ccc(-c2cc(-c3ccc(C(=O)*)cc3)no2)cc1; Gln(3R-OH) = NC(=O)C[C@@H](O)[C@H](N)C(=O)O; Hyp = O=C(O)[C@@H]1C[C@@H](O)CN1

Tests used:
[1] = tested on: C. glabrata vaginal isolates; assay: Susceptibility testing of VVC clinical isolates at pH 7 and 4 (CLSI M27-A3); assay type: cell-based, Candida glabrata; details: for MIC90: Nakaseomyces glabratus
Candida albicans = assay: Broth microdilution of invasive fungal isolates (CLSI M27-A3/M38-A2); assay type: cell-based
Candida parapsilosis = assay: as above; assay type: cell-based
[2] = tested on: C. parapsilosis vaginal isolates; assay: Susceptibility testing of VVC clinical isolates at pH 7 and 4 (CLSI M27-A3); assay type: cell-based, Candida parapsilosis
Candida tropicalis = assay: Broth microdilution of invasive fungal isolates (CLSI M27-A3/M38-A2); assay type: cell-based
[3] = tested on: C. tropicalis vaginal isolates; assay: Susceptibility testing of VVC clinical isolates at pH 7 and 4 (CLSI M27-A3); assay type: cell-based; details: Candida tropicalis
Aspergillus fumigatus = assay: Broth microdilution of invasive fungal isolates (CLSI M27-A3/M38-A2), MEC; assay type: cell-based; details: 56 isolates
[4] = tested on: Cryptococcus neoformans var. grubii; assay: Broth microdilution of invasive fungal isolates (CLSI M27-A3/M38-A2); assay type: cell-based
Candida orthopsilosis = assay: as above; assay type: cell-based

## OC(Cn1cncn1)(Cn1cncn1)c1ccc(F)cc1F [FLU, fluconazole]
[1]; 21 VVC isolates, 24 h, pH 4
  Number of isolates at MIC 2 μg/mL: 5
  Number of isolates at MIC 4 μg/mL: 3
  Number of isolates at MIC ≥4 μg/mL: 13
[1]; 21 VVC isolates, 24 h, pH 7
  Number of isolates at MIC 0.5 μg/mL: 4
  Number of isolates at MIC 1 μg/mL: 2
  Number of isolates at MIC 2 μg/mL: 5
  Number of isolates at MIC 4 μg/mL: 2
  Number of isolates at MIC ≥4 μg/mL: 8
[1]; 21 VVC isolates, 48 h, pH 4
  Number of isolates at MIC 2 μg/mL: 1
  Number of isolates at MIC 4 μg/mL: 2
  Number of isolates at MIC ≥4 μg/mL: 18
[1]; 21 VVC isolates, 48 h, pH 7
  Number of isolates at MIC 1 μg/mL: 3
  Number of isolates at MIC 2 μg/mL: 4
  Number of isolates at MIC 4 μg/mL: 2
  Number of isolates at MIC ≥4 μg/mL: 12
[1]; 21 isolates, pH 4, 24 h, read-out: MIC90
  MIC90: 64 µg/mL (≈ 209 µM)
[1]; 21 isolates, pH 4, 48 h, read-out: MIC90
  MIC90: > 64 µg/mL
[1]; 21 isolates, pH 7, 24 h, read-out: MIC90
  MIC90: 16 µg/mL (≈ 52.2 µM)
[1]; 21 isolates, pH 7, 48 h, read-out: MIC90
  MIC90: > 64 µg/mL
Candida albicans; CLSI breakpoints
  % of isolates with fluconazole resistance: 2.0%
Candida parapsilosis; CLSI breakpoints
  % of isolates with fluconazole resistance: 4.3%
[2]; 14 isolates, pH 4, 24 h, read-out: MIC90
  MIC90: 8 µg/mL (≈ 26.1 µM)
[2]; 14 isolates, pH 4, 48 h, read-out: MIC90
  MIC90: > 64 µg/mL
[2]; 14 isolates, pH 7, 48 h, read-out: MIC90
  MIC90: 32 µg/mL (≈ 104 µM)
Candida tropicalis; CLSI breakpoints
  % of isolates with fluconazole resistance: 2.0%
[3]; 13 isolates, pH 4, 24 h, read-out: MIC90
  MIC90: 8 µg/mL (≈ 26.1 µM)
[3]; 13 isolates, pH 4, 48 h, read-out: MIC90
  MIC90: > 64 µg/mL
[3]; 13 isolates, pH 7, 24 h, read-out: MIC90
  MIC90: 2 µg/mL (≈ 6.53 µM)
[3]; 13 isolates, pH 7, 48 h, read-out: MIC90
  MIC90: 64 µg/mL (≈ 209 µM)

## CCCCCOc1ccc(-c2cc(-c3ccc(C(=O)N[C@H]4C[C@@H](O)[C@@H](O)NC(=O)[C@@H]5[C@@H](O)[C@@H](C)CN5C(=O)[C@H]([C@H](O)CC(N)=O)NC(=O)[C@H]([C@H](O)[C@@H](O)c5ccc(O)c(OS(=O)(=O)O)c5)NC(=O)[C@@H]5C[C@@H](O)CN5C(=O)[C@H]([C@@H](C)O)NC4=O)cc3)no2)cc1 [MCF, micafungin] (X1-[Orn(4R-OH,5R-OH)]T[Hyp][hTyr(3S-OH,4S-OH,3'-OSO3H)][Gln(3R-OH)][Pro(3S-OH,4S-Me)]; lactam 1-C)
[1]; 24 h, pH 4
  MIC90: 0.016 µg/mL (≈ 0.0126 µM)
[1]; 24 h, pH 7
  MIC90: 0.008 µg/mL (≈ 0.0063 µM)
[1]; 48 h, pH 4
  MIC90: 0.03 µg/mL (≈ 0.0236 µM)
[1]; 48 h, pH 7
  MIC90: 0.016 µg/mL (≈ 0.0126 µM)
Aspergillus fumigatus
  Cumulative % of isolates inhibited at MEC 0.015 μg/mL: (96.4) %
  Cumulative % of isolates inhibited at MEC 0.03 μg/mL: (100.0) %
  Cumulative % of isolates inhibited at MEC ≤0.008 μg/mL: (28.6) %
  MEC50: .015 µg/mL
  MEC90: .015 µg/mL
  Number of isolates inhibited at MEC 0.015 μg/mL: 38
  Number of isolates inhibited at MEC 0.03 μg/mL: 2
  Number of isolates inhibited at MEC ≤0.008 μg/mL: 16
[4]; 19 isolates
  Cumulative % of isolates inhibited at MIC >8 μg/mL: (100.0) %
  Number of isolates inhibited at MIC >8 μg/mL: 19
[4]; Cryptococcus neoformans
  MIC50: 8 µg/mL (≈ 6.3 µM)
  MIC90: 8 µg/mL (≈ 6.3 µM)
Candida albicans; 251 isolates
  Cumulative % of isolates inhibited at MIC 0.015 μg/mL: (74.9) %
  Cumulative % of isolates inhibited at MIC 0.03 μg/mL: (100.0) %
  Cumulative % of isolates inhibited at MIC ≤0.008 μg/mL: (6.8) %
  Number of isolates inhibited at MIC 0.015 μg/mL: 171
  Number of isolates inhibited at MIC 0.03 μg/mL: 63
  Number of isolates inhibited at MIC ≤0.008 μg/mL: 17
Candida albicans; Candida albicans
  MIC50: 0.015 µg/mL (≈ 0.0118 µM)
  MIC90: 0.03 µg/mL (≈ 0.0236 µM)
Candida parapsilosis; 92 isolates
  Cumulative % of isolates inhibited at MIC 0.5 μg/mL: (10.9) %
  Cumulative % of isolates inhibited at MIC 1 μg/mL: (72.8) %
  Cumulative % of isolates inhibited at MIC 2 μg/mL: (100.0) %
  Number of isolates inhibited at MIC 0.5 μg/mL: 10
  Number of isolates inhibited at MIC 1 μg/mL: 57
  Number of isolates inhibited at MIC 2 μg/mL: 25
Candida parapsilosis; Lodderomyces parapsilosis
  MIC50: 1 µg/mL (≈ 0.787 µM)
  MIC90: 2 µg/mL (≈ 1.57 µM)
[2]; 24 h, pH 4
  MIC90: 0.5 µg/mL (≈ 0.394 µM)
[2]; 24 h, pH 7
  MIC90: 1 µg/mL (≈ 0.787 µM)
[2]; 48 h, pH 4
  MIC90: 1 µg/mL (≈ 0.787 µM)
[2]; 48 h, pH 7
  MIC90: 2 µg/mL (≈ 1.57 µM)
Candida orthopsilosis; 10 isolates
  Cumulative % of isolates inhibited at MIC 0.12 μg/mL: (20.0) %
  Cumulative % of isolates inhibited at MIC 0.25 μg/mL: (40.0) %
  Cumulative % of isolates inhibited at MIC 0.5 μg/mL: (70.0) %
  Cumulative % of isolates inhibited at MIC 1 μg/mL: (100.0) %
  Number of isolates inhibited at MIC 0.12 μg/mL: 2
  Number of isolates inhibited at MIC 0.25 μg/mL: 2
  Number of isolates inhibited at MIC 0.5 μg/mL: 3
  Number of isolates inhibited at MIC 1 μg/mL: 3
Candida orthopsilosis; Lodderomyces orthopsilosis
  MIC50: 0.5 µg/mL (≈ 0.394 µM)
  MIC90: 1 µg/mL (≈ 0.787 µM)
Candida tropicalis; 51 isolates
  Cumulative % of isolates inhibited at MIC 0.015 μg/mL: (31.4) %
  Cumulative % of isolates inhibited at MIC 0.03 μg/mL: (84.3) %
  Cumulative % of isolates inhibited at MIC 0.06 μg/mL: (100.0) %
  Cumulative % of isolates inhibited at MIC ≤0.008 μg/mL: (2.0) %
  Number of isolates inhibited at MIC 0.015 μg/mL: 15
  Number of isolates inhibited at MIC 0.03 μg/mL: 27
  Number of isolates inhibited at MIC 0.06 μg/mL: 8
  Number of isolates inhibited at MIC ≤0.008 μg/mL: 1
Candida tropicalis; Candida tropicalis
  MIC50: 0.03 µg/mL (≈ 0.0236 µM)
  MIC90: 0.06 µg/mL (≈ 0.0472 µM)
[3]; 24 h, pH 4
  MIC90: 0.06 µg/mL (≈ 0.0472 µM)
[3]; 24 h, pH 7
  MIC90: 0.016 µg/mL (≈ 0.0126 µM)
[3]; 48 h, pH 4
  MIC90: 0.06 µg/mL (≈ 0.0472 µM)
[3]; 48 h, pH 7
  MIC90: 0.03 µg/mL (≈ 0.0236 µM)
